# Test results published in PubChem BioAssay (NCI).
# Values joined by “and” are separate entries in the source; they are usually repeats but may differ in a detail not shown here. Equal entries are not always repeated.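 Five concentrations, 48 hours, 96-well plates. At the GI50, growth is halved. Definition used: TGI = concentration required for complete inhibition of growth.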
# Tests used:
# Assay in all cases: NCI anticancer screen, dose series, 48 h
# MDA-MB-231 breast = tested on: MDA-MB-231 breast
# HL-60(TB) leukemia = tested on: HL-60(TB) leukemia
# HT29 colon = tested on: HT29 colon
# UO-31 renal = tested on: UO-31 renal
# SF-268 CNS = tested on: SF-268 CNS
# SNB-19 CNS = tested on: SNB-19 CNS
# UACC-62 melanoma = tested on: UACC-62 melanoma
# OVCAR-3 ovarian = tested on: OVCAR-3 ovarian
# EKVX NSCLC = tested on: EKVX NSCLC
# HCT-116 colon = tested on: HCT-116 colon
Structure (SMILES),GI50 (MDA-MB-231 breast),TGI (MDA-MB-231 breast),GI50 (HL-60(TB) leukemia),TGI (HL-60(TB) leukemia),GI50 (HT29 colon),TGI (HT29 colon),GI50 (UO-31 renal),TGI (UO-31 renal),GI50 (SF-268 CNS),TGI (SF-268 CNS),GI50 (SNB-19 CNS),TGI (SNB-19 CNS),GI50 (UACC-62 melanoma),TGI (UACC-62 melanoma),GI50 (OVCAR-3 ovarian),TGI (OVCAR-3 ovarian),GI50 (EKVX NSCLC),TGI (EKVX NSCLC),GI50 (HCT-116 colon),TGI (HCT-116 colon)
Cc1cc2c(cc1Cl)N1C(=O)NS(=O)(=O)N=C1NS2(=O)=O,> 100 µM,> 100 µM,> 100 µM,> 100 µM,> 100 µM,> 100 µM,> 100 µM,> 100 µM,> 100 µM,> 100 µM,> 100 µM,> 100 µM,> 100 µM,> 100 µM,> 100 µM,> 100 µM,> 100 µM,> 100 µM,> 100 µM,> 100 µM
COc1c2ccccc2c(O)c2c(=O)ccn(C)c12,8.66 µM,> 61.4 µM,3.25 µM,18.7 µM,16.5 µM,> 100 µM,> 57.5 µM,> 100 µM,16.5 µM,> 68.9 µM,7.77 µM,> 100 µM,2.75 µM,7.5 µM,1.86 µM,11 µM,17.9 µM,79.2 µM,3.13 µM,13.1 µM
O=C(/C=C/c1ccccc1)OCC1=C[C@@H](O)[C@@H]2C=CO[C@@H](OC3OC(CO)C(O)C(O)C3O)[C@H]12 (some centres undefined),–,> 100 µM,–,–,–,> 100 µM,–,> 100 µM,–,> 100 µM,–,> 100 µM,–,> 100 µM,–,> 100 µM,–,> 100 µM,–,> 100 µM
O=C(Nc1ccccc1)Nc1ccc(Cl)c(Cl)c1,3.9 µM,25.4 µM,3.98 µM,26.9 µM,2.85 µM,20.2 µM,2.62 µM,21.9 µM,4.76 µM,> 100 µM,3.1 µM,> 100 µM,2.66 µM,> 100 µM,2.44 µM,8.76 µM,2.93 µM,> 100 µM,3.03 µM,> 100 µM
COc1cc(NC(C)CCCN2C(=O)c3ccccc3C2=O)c2ncccc2c1OC (centres undefined),31.8 µM,> 100 µM,15.2 µM,> 100 µM,36.3 µM,> 100 µM,36.7 µM,> 100 µM,55.7 µM,> 100 µM,67.7 µM,> 100 µM,35.9 µM,> 100 µM,25.8 µM,> 100 µM,29.7 µM,> 100 µM,31.2 µM,> 100 µM
FC(F)(F)c1ccc(NCc2nc3ccccc3[nH]2)cc1,22.8 µM,78.2 µM,12.1 µM,38.5 µM,27.9 µM,81.3 µM,30.4 µM,> 100 µM,40.8 µM,> 100 µM,34.3 µM,> 100 µM,18.7 µM,56.5 µM,21.9 µM,62.2 µM,26.8 µM,> 100 µM,23 µM,68.7 µM
CNc1ncc2cc(-c3cc(NC(=O)NCCC(C)(C)C)c(F)cc3C)c(C)nc2n1,0.0619 µM and 0.156 µM,1.67 µM and 1.41 µM,0.0668 µM and 0.0811 µM,17.8 µM and > 10 µM,0.0177 µM and 0.0194 µM,> 41.5 µM,0.143 µM and 0.117 µM,> 67.7 µM,0.716 µM and 0.721 µM,> 100 µM,2.23 µM and 1.55 µM,> 100 µM,< 0.01 µM and 0.00585 µM,0.0881 µM and 0.121 µM,1.93 µM and 1.89 µM,> 100 µM,2.54 µM and 1.38 µM,99.6 µM and > 10 µM,0.0805 µM and 0.0858 µM,11.8 µM and > 10 µM
O=c1c2cc(O)c(O)cc2oc2cc(O)c(C3OC(CO)C(O)C(O)C3O)c(O)c12 (centres undefined),–,> 100 µM,–,> 100 µM,–,> 100 µM,–,> 100 µM,–,> 100 µM,–,> 100 µM,–,> 100 µM,–,> 100 µM,–,> 100 µM,–,> 100 µM
CNCCNc1nc2ccccc2c2c(=O)c3cccc(C)c3sc12,1.02 µM,3.61 µM,1.06 µM,2.2 µM,0.887 µM,1.92 µM,0.79 µM,7.12 µM,3.53 µM,11.4 µM,–,–,1.15 µM,3.39 µM,1.47 µM,5.27 µM,2.73 µM,9.87 µM,0.818 µM,1.57 µM
COc1cccc(/C=C\c2ccnc3ccccc23)c1,–,> 10 µM,–,> 10 µM,–,> 10 µM,–,> 10 µM,–,> 10 µM,–,> 10 µM,–,> 10 µM,–,> 10 µM,–,> 10 µM,–,> 10 µM
C#Cc1ccc(-n2c(/C=C/c3ccc4ccccc4c3)nc3ncccc3c2=O)cc1,3.74 µM,> 100 µM,1.66 µM,8.83 µM,3.26 µM,> 100 µM,3.11 µM,> 100 µM,2.6 µM,> 100 µM,–,–,2.49 µM,> 100 µM,–,–,–,–,–,–
COc1cc(/C=C/c2ccccn2)cc(OC)c1OC,–,> 10 µM,–,> 10 µM,–,> 10 µM,–,> 10 µM,–,> 10 µM,–,> 10 µM,–,> 10 µM,–,> 10 µM,–,> 10 µM,–,> 10 µM
COc1ccc2c(c1)C(=O)c1c-2c(N2CCN(C(=O)CCNCCNCCO)CC2)nc2ccccc12,13.5 µM,30.9 µM,10.3 µM,25.8 µM,4.6 µM,16.7 µM,13.9 µM,31.4 µM,14.3 µM,36.9 µM,17.5 µM,38 µM,21.3 µM,38.2 µM,20.6 µM,43.2 µM,14.5 µM,30.1 µM,2.36 µM,5.52 µM
O=C1NC(=N[C@H](CO)c2ccccc2)S/C1=C\c1ccc2ncccc2c1,7.71 µM,> 25 µM,4.19 µM,16.7 µM,6.1 µM,> 25 µM,4.61 µM,13.8 µM,3.82 µM,> 25 µM,3.73 µM,> 25 µM,5.74 µM,24.7 µM,4.13 µM,13.7 µM,–,–,1.68 µM,> 21 µM
Cc1cc(N)cc(C)c1-c1c(Br)cc(N)cc1Br,4.1 µM,26.3 µM,–,–,2.82 µM,12 µM,9.11 µM,46 µM,6.36 µM,68.5 µM,5.3 µM,> 100 µM,3.52 µM,24 µM,2.63 µM,6.3 µM,5.65 µM,> 100 µM,3.68 µM,13.1 µM
O=C(CSc1ncc(-c2ccccc2)n1-c1ccccc1)Nc1ccc(-c2nc3ccccc3s2)cc1,21.4 µM,> 100 µM,> 100 µM,> 100 µM,–,–,–,–,3.5 µM,> 100 µM,15.1 µM,> 100 µM,22.6 µM,> 100 µM,7.22 µM,> 100 µM,8.82 µM,> 100 µM,3.68 µM,> 100 µM
O=C1N=C(Nc2nc(-c3csc(NC4=NC(=O)/C(=C\c5ccc(Cl)cc5)S4)n3)cs2)S/C1=C/c1ccc(Cl)cc1,10.2 µM,35 µM,12.6 µM,33.8 µM,23.6 µM,> 50 µM,17.6 µM,> 50 µM,8.29 µM,> 50 µM,12 µM,> 50 µM,6.03 µM,16.4 µM,10.5 µM,37.3 µM,12.3 µM,> 50 µM,–,–
OCc1ccc(N(Cc2ccc(F)cc2)CC2CCC2)cc1Cl,13.5 µM,26.8 µM,12.1 µM,28.9 µM,12.9 µM,26.2 µM,8.3 µM,21 µM,17.1 µM,32.1 µM,14 µM,27.3 µM,1.57 µM,8.34 µM,5.28 µM,17.5 µM,–,–,1.85 µM,11.5 µM
N#Cc1c(N)c(C#N)c2c(c1-c1ccc(Cl)cc1)COc1ccc(F)cc1-2,7.71 µM,45.7 µM,> 50 µM,> 50 µM,49.7 µM,> 50 µM,10.9 µM,> 50 µM,–,–,> 50 µM,> 50 µM,46.4 µM,> 50 µM,16.2 µM,> 50 µM,12.4 µM,> 50 µM,–,–
c1cc2c(c(NC3=NCCN3)c1)CCCC2,–,> 100 µM,–,> 100 µM,–,> 100 µM,–,–,–,> 100 µM,–,> 100 µM,–,> 100 µM,–,> 100 µM,–,> 100 µM,–,> 100 µM
Fc1ccc(-c2c(-c3ccncc3)[nH]c3nccnc23)cc1,> 14.4 µM,> 25 µM,16.3 µM,> 25 µM,6.41 µM,> 25 µM,3.43 µM,> 25 µM,10.9 µM,> 25 µM,> 20.3 µM,> 25 µM,6.33 µM,> 25 µM,10.3 µM,> 25 µM,–,–,6.39 µM,> 22.1 µM
COc1cc(/C=C/c2cc(O)c(C/C=C(\C)CC/C=C(\C)CO)c(O)c2)cc2c1O[C@]1(C)CC[C@@H](O)C(C)(C)[C@H]1C2,31 µM,> 100 µM,0.511 µM,5.69 µM,31.1 µM,> 100 µM,–,–,–,> 100 µM,> 91.9 µM,> 100 µM,–,–,> 29.3 µM,> 70.2 µM,–,98.6 µM,–,46.5 µM
Cc1cn2c(/C=C3/C(=O)Nc4ccc(Cl)cc43)c(C)nc2s1,0.678 µM,24.8 µM,–,–,–,> 56.8 µM,15.6 µM,> 100 µM,12.5 µM,> 100 µM,–,> 42.4 µM,0.0411 µM,54.7 µM,0.564 µM,5.28 µM,12.5 µM,> 100 µM,< 0.0238 µM,25.3 µM
O=C1C(Br)=CC2(C=C1Br)CCNc1c(O)c3c4c(c12)=NCCC=4C=N3,–,0.409 µM,–,–,–,0.168 µM,–,0.685 µM,–,1.18 µM,–,3.97 µM,–,0.233 µM,–,0.0835 µM,–,0.521 µM,–,0.116 µM
COc1cc(Cn2c(SCC(=O)Nc3ccc(Cl)cc3)nc3ccccc3c2=O)cc(OC)c1OC,3.08 µM,13 µM,> 100 µM,> 100 µM,–,–,3.75 µM,32.4 µM,6.61 µM,24.8 µM,6.8 µM,26 µM,6.29 µM,37.1 µM,7.86 µM,31 µM,–,–,4.04 µM,14.9 µM
Cc1cc(C#Cc2ccccc2)ccc1-n1c(/C=C/c2cc(O)ccc2O)nc2ccccc2c1=O,1.56 µM,3.16 µM,–,–,1.97 µM,4.19 µM,1.16 µM,3.1 µM,1.31 µM,3.07 µM,1.62 µM,3.18 µM,1.52 µM,2.86 µM,1.49 µM,2.81 µM,1.24 µM,5.41 µM,1.46 µM,2.77 µM
Cc1c(O)c(Br)c(C)c(O)c1Br (tested in a mixture with another compound),–,25.5 µM,–,3.22 µM,–,4.78 µM,–,3.28 µM,–,8.45 µM,–,41.7 µM,–,10.8 µM,–,–,–,–,–,–
CN1CCN(c2ccc(Nc3ncc4cc5n(c4n3)C3(CCCCC3)CNC5=O)nc2)CC1,1.34 µM,10.5 µM,0.0651 µM,3.04 µM,0.397 µM,19.2 µM,0.67 µM,12.9 µM,1.46 µM,4.94 µM,–,–,2.94 µM,19.8 µM,3.16 µM,13.1 µM,2.14 µM,14.1 µM,1.81 µM,11 µM
Cn1cc(C2=C(c3c(S(C)=O)n(C)c4ccccc34)C(=O)NC2=O)c2ccccc21 (centres undefined),12.9 µM,> 25 µM,5.39 µM,17.7 µM,7.51 µM,> 25 µM,3.89 µM,> 25 µM,11.7 µM,> 25 µM,25 µM,> 25 µM,14.2 µM,> 25 µM,6.31 µM,17.5 µM,–,–,8.57 µM,> 25 µM
O=C(O)c1cn(C2CC2)c2cc(N3CCN(Cc4ccc5ccccc5c4O)CC3)c(F)cc2c1=O,3.41 µM,> 100 µM,> 100 µM,> 100 µM,4.35 µM,> 100 µM,–,–,8.13 µM,> 100 µM,29.8 µM,> 100 µM,5.06 µM,> 100 µM,–,–,> 100 µM,> 100 µM,–,–
